Reference: patent US20240043435A1, “TYK-2 INHIBITOR” (BEIGENE, LTD., priority 2020, published 2024)

What was measured:
[1] = test system: JAK2, TYK2/p-STAT4 (Tyr693) activated by IL-12 in NK-92 cell line; experiment: IL-12-JAK2, TYK2/p-STAT4 (Tyr693) inhibition IC50 cellular assay; format: cell-based; conditions: for Selectivity fold (TYK2/JAK2): Cellular assay, pSTAT5/GM-CSF IC50 vs pSTAT4/IL-12 IC50; for IC50: NK92, Cellular assay, read-out: pSTAT4/IL-12 IC50
Procedure, shortened: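 NK-92 cells were starved overnight without IL-2 and preincubated 1 h at 37° C with compound (8 doses, 10000–0.61 nM, 4-fold, 0.2% DMSO). They were then stimulated with IL-12 (40 ng/ml final) for 30 min. Lysate p-STAT4 (Tyr693) was read by AlphaLISA SureFire; IC50 from four-parameter logistic fit.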

[2] = molecular target: T1, TYK2-JH2 (aa 575-869, in-house) protein (Homo sapiens, UniProt P29597); experiment: TYK2-JH2 biochemical assay (HTRF probe displacement); format: binding; conditions: Biochemical assay; read-out: TYK2-JH2 IC50
T1 construct: TYK2-JH2 (aa 575-869, in-house) protein; made in house
Procedure, shortened: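 Recombinant TYK2-JH2 (0.2 nM) was pre-incubated 0.5 h at room temperature with compounds (10 doses, 5-fold dilution; 500× DMSO stocks from 500 uM) in 20 mM HEPES pH 7.5, 10 mM MgCl2, 0.005% BSA, 2 mM DTT, 0.015% Brij-35. Probe displacement was read by HTRF (ex337, em620/665 nm); IC50 from four-parameter logistic fit.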

pSTAT5/GM-CSF = pSTAT5/GM-CSF cellular assay (JAK2 selectivity); format: cell-based

T1 sequence (P29597 575-869): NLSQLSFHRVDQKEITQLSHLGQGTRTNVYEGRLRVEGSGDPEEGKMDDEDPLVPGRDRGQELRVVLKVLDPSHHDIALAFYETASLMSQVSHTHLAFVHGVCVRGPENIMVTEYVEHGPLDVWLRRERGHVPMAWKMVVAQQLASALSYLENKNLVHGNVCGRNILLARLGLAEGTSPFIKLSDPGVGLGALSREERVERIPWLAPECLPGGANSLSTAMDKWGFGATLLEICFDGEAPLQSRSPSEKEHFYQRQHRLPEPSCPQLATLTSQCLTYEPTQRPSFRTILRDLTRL

Row | IC50 [1] | IC50 [2] | IC50 (pSTAT5/GM-CSF) | SMILES | Selectivity fold (TYK2/JAK2) [1]
1 | 0.251 nM | 0.047 nM | > 10000 nM | COCCOc1ccc(-c2cnc(NC(C)=O)cc2Nc2cccc(S(C)(=O)=O)n2)nc1 [Example D1, N-(5-(2-methoxyethoxy)-4′-((6-(methylsulfonyl)pyridin-2-yl)amino)-[2,3′-bipyridin]-6′-yl)acetamide] | >39840 fold
2 | 15.6 nM | 0.038 nM | > 10000 nM | COCCOc1ccc(-c2cnc(NC(C)=O)cc2Nc2cccc(S(C)(=O)=O)c2)nc1 [Example D2, N-(5-(2-methoxyethoxy)-4′-((3-(methylsulfonyl)phenyl)amino)-[2,3′-bipyridin]-6′-yl)acetamide] | >641 fold
3 | 4.8 nM | 0.08 nM | > 10000 nM | COCCOc1ccc(-c2cnc(NC(C)=O)cc2Nc2cc(C(F)(F)F)cc(S(C)(=O)=O)c2)nc1 [Example D3, N-(5-(2-methoxyethoxy)-4′-((3-(methylsulfonyl)-5-(trifluoromethyl)phenyl)amino)-[2,3′-bipyridin]-6′-yl)acetamide] | >2083 fold
4 | 0.262 nM | 0.044 nM | > 10000 nM | COCCOc1ccc(-c2cnc(NC(C)=O)cc2Nc2cc(C)cc(S(C)(=O)=O)n2)nc1 [Example D4, N-(5-(2-methoxyethoxy)-4′-((4-methyl-6-(methylsulfonyl)pyridin-2-yl)amino)-[2,3′-bipyridin]-6′-yl)acetamide] | >38167 fold
5 | 0.99 nM | 0.036 nM | > 10000 nM | COCCOc1ccc(-c2cnc(NC(C)=O)cc2Nc2cc(OC)cc(S(C)(=O)=O)n2)nc1 [Example D5, N-(4′-((4-methoxy-6-(methylsulfonyl)pyridin-2-yl)amino)-5-(2-methoxyethoxy)-[2,3′-bipyridin]-6′-yl)acetamide] | >10101 fold
6 | 0.593 nM | 0.025 nM | > 10000 nM | COCCOc1ccc(-c2cnc(NC(C)=O)cc2Nc2cc(OC(C)C)cc(S(C)(=O)=O)n2)nc1 [Example D6, N-(4′-((4-isopropoxy-6-(methylsulfonyl)pyridin-2-yl)amino)-5-(2-methoxyethoxy)-[2,3′-bipyridin]-6′-yl)acetamide] | >16863 fold
7 | 0.805 nM | 0.031 nM | > 10000 nM | COCCOc1ccc(-c2cnc(NC(C)=O)cc2Nc2cc(OC[C@@H](C)OC)cc(S(C)(=O)=O)n2)nc1 [Example D7, (R)-N-(5-(2-methoxyethoxy)-4′-((4-(2-methoxypropoxy)-6-(methylsulfonyl)pyridin-2-yl)amino)-[2,3′-bipyridin]-6′-yl)acetamide] | >12422 fold
8 | 0.443 nM | 0.036 nM | > 10000 nM | COCCOc1ccc(-c2cnc(NC(C)=O)cc2Nc2cc(OCCOC)cc(S(C)(=O)=O)n2)nc1 [Example D8, N-(5-(2-methoxyethoxy)-4′-((4-(2-methoxyethoxy)-6-(methylsulfonyl)pyridin-2-yl)amino)-[2,3′-bipyridin]-6′-yl)acetamide] | >22573 fold
9 | 0.479 nM | 0.021 nM | > 10000 nM | CCOc1cc(Nc2cc(NC(C)=O)ncc2-c2ccc(OCCOC)cn2)nc(S(C)(=O)=O)c1 [Example D9, N-(4′-((4-ethoxy-6-(methylsulfonyl)pyridin-2-yl)amino)-5-(2-methoxyethoxy)-[2,3′-bipyridin]-6′-yl)acetamide] | >20876 fold
10 | 12.7 nM | 0.052 nM | > 10000 nM | COCCOc1ccc(-c2cnc(NC(C)=O)cc2Nc2cc(OCC3CC3)cc(S(C)(=O)=O)c2)nc1 [Example D10, N-(4′-((3-(cyclopropylmethoxy)-5-(methylsulfonyl)phenyl)amino)-5-(2-methoxyethoxy)-[2,3′-bipyridin]-6′-yl)acetamide] | >789 fold
11 | 4.55 nM | 0.022 nM | > 10000 nM | COCc1ccc(-c2cnc(NC(C)=O)cc2Nc2cccc(S(C)(=O)=O)c2)nc1 [Example E1, N-(5-(methoxymethyl)-4′-((3-(methylsulfonyl)phenyl)amino)-[2,3′-bipyridin]-6′-yl)acetamide] | >2197 fold
12 | 0.325 nM | 0.017 nM | 5810 nM | COCc1ccc(-c2cnc(NC(C)=O)cc2Nc2cc(C)cc(S(C)(=O)=O)n2)nc1 [Example E2, N-(5-(methoxymethyl)-4′-((4-methyl-6-(methylsulfonyl)pyridin-2-yl)amino)-[2,3′-bipyridin]-6′-yl)acetamide] | 17867 fold
13 | 0.645 nM | 0.035 nM | > 10000 nM | COCc1ccc(-c2cnc(NC(C)=O)cc2Nc2cc(OC[C@@H](C)OC)cc(S(C)(=O)=O)n2)nc1 [Example E3, (R)-N-(5-(methoxymethyl)-4′-((4-(2-methoxypropoxy)-6-(methylsulfonyl)pyridin-2-yl)amino)-[2,3′-bipyridin]-6′-yl)acetamide] | >15503 fold
14 | 0.536 nM | 0.022 nM | > 10000 nM | COCc1ccc(-c2cnc(NC(C)=O)cc2Nc2cc(OC(C)C)cc(S(C)(=O)=O)n2)nc1 [Example E4, N-(4′-((4-isopropoxy-6-(methylsulfonyl)pyridin-2-yl)amino)-5-(methoxymethyl)-[2,3′-bipyridin]-6′-yl)acetamide] | >18656 fold
15 | 0.501 nM | 0.022 nM | > 10000 nM | COCCOc1cc(Nc2cc(NC(C)=O)ncc2-c2ccc(COC)cn2)nc(S(C)(=O)=O)c1 [Example E5, N-(4′-((4-(2-methoxyethoxy)-6-(methylsulfonyl)pyridin-2-yl)amino)-5-(methoxymethyl)-[2,3′-bipyridin]-6′-yl)acetamide] | >19960 fold

More lines, now with the values behind:

Row | SMILES | IC50 [1] | IC50 [2] | IC50 (pSTAT5/GM-CSF) | Selectivity fold (TYK2/JAK2) [1]
16 | COc1cc(Nc2cc(NC(C)=O)ncc2-c2ccc(N3C[C@@H](C)O[C@@H](C)C3)cn2)nc(S(C)(=O)=O)c1 [Example C9, N-(5-(cis-2,6-dimethylmorpholino)-4′-((4-methoxy-6-(methylsulfonyl)pyridin-2-yl)amino)-[2,3′-bipyridin]-6′-yl)acetamide] | 0.672 nM | 0.027 nM | > 10000 nM | >14880 fold
17 | [2H]C([2H])([2H])Oc1cc(Nc2cc(NC(C)=O)ncc2-c2ccc(N3C[C@@H](C)O[C@@H](C)C3)cn2)nc(S(C)(=O)=O)c1 [Example C17, N-(5-((cis)-2,6-dimethylmorpholino)-4′-((4-(methoxy-d3)-6-(methylsulfonyl)pyridin-2-yl)amino)-[2,3′-bipyridin]-6′-yl)acetamide] | 0.605 nM | 0.022 nM | > 10000 nM | >16528 fold
18 | COC(C)c1cc(Nc2cc(NC(C)=O)ncc2-c2ccc(N3C[C@@H](C)O[C@@H](C)C3)cn2)nc(S(C)(=O)=O)c1 (stereo partly drawn) [Example C18, N-(5-(cis-2,6-dimethylmorpholino)-4′-((4-(1-methoxyethyl)-6-(methylsulfonyl)pyridin-2-yl)amino)-[2,3′-bipyridin]-6′-yl)acetamide] | 0.639 nM | 0.023 nM | 4870 nM | 7625 fold
19 | CC(=O)Nc1cc(Nc2cc(C3CCOCC3)cc(S(C)(=O)=O)n2)c(-c2ccc(N3C[C@@H](C)O[C@@H](C)C3)cn2)cn1 [Example C21, N-(5-(cis-2,6-dimethylmorpholino)-4′-((6-(methylsulfonyl)-4-(tetrahydro-2H-pyran-4-yl)pyridin-2-yl)amino)-[2,3′-bipyridin]-6′-yl)acetamide] | 0.995 nM | 0.024 nM | > 10000 nM | >10050 fold
20 | CC(=O)Nc1cc(Nc2cncc(S(C)(=O)=O)n2)c(-c2ccc(N3C[C@@H](C)O[C@@H](C)C3)cn2)cn1 [Example C22, N-(5-(cis-2,6-dimethylmorpholino)-4′-((6-(methylsulfonyl)pyrazin-2-yl)amino)-[2,3′-bipyridin]-6′-yl)acetamide] | 0.476 nM | 0.023 nM | > 10000 nM | >21008 fold
21 | CC(=O)Nc1cc(Nc2cc(N3CCOC[C@@H]3C)cc(S(C)(=O)=O)n2)c(-c2ccc(N3C[C@@H](C)O[C@@H](C)C3)cn2)cn1 [Example C23, N-(5-(cis-2,6-dimethylmorpholino)-4′-((4-((S)-3-methylmorpholino)-6-(methylsulfon-yl)pyridin-2-yl)amino)-[2,3′-bipyridin]-6′-yl)ace-tamide] | 0.63 nM | 0.022 nM | 2600 nM | 4126 fold
22 | COC1CN(c2cc(Nc3cc(NC(C)=O)ncc3-c3ccc(N4C[C@@H](C)O[C@@H](C)C4)cn3)nc(S(C)(=O)=O)c2)C1 [Example C25, N-(5-(cis-2,6-dimethyl-morpholino)-4′-((4-(3-methoxy-azetidin-1-yl)-6-(methylsulfonyl)pyridin-2-yl)amino)-[2,3′-bipyridin]-6′-yl)acetamide] | 0.827 nM | 0.037 nM | 1060 nM | 1288 fold
